# Experimental data taken from PubChem BioAssay AID463206 (Broad Institute, 2010).
# Active and inactive are the calls of the source.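 Rule for the calls: active = caspase luminescence falls with dose and the half-maximal concentration AC50 from the fitted curve is at or below a set limit; inconclusive = flat fit at 30 to 70% signal loss, or invalid fit; inactive = AC50 above the limit, or signal rises instead.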
# Tested on: INS-1E cytokine-induced caspase-3/7, Caspase-Glo luminescence, 48 h
# Experiment: suppression of cytokine-driven beta-cell apoptosis – INS-1E rat cells, luminescence, orthogonal assay for beta-cell apoptosis protection project, dose response (AID 463206)
row,Structure (SMILES),AC50
1,COc1cc(NC2CCCCC2O)c2nc(-c3ccc(Cl)cc3)ccc2c1 (centres undefined),> 26 µM (inactive)
2,C/C(=N/Nc1nc(-c2ccccc2)cc(-c2ccc(F)cc2)n1)c1cccc(N)c1,> 26 µM (inactive)
3,O=C(N/N=C/c1cc(Cl)ccc1O)c1ccccc1Br,> 26 µM (inactive)
4,O=C(N/N=C/c1cc(Cl)ccc1O)c1ccc(Br)cc1,> 26 µM (inactive)
5,Cc1cc(C)n(-c2nc3ccccc3c(=O)n2OCC#N)n1,> 26 µM (inactive)
6,COc1ccc(/C=N/Nc2cc(C)nc(-n3nc(C)cc3C)n2)c(OC)c1,> 26 µM (inactive)
7,CS(=O)(=O)c1ncc(Cl)c(C(=O)Nc2ccc(OC(F)F)cc2)n1,> 26 µM (inactive)
8,CCc1ccc(C2=NNC(=Nc3cccc(S(=O)(=O)N(C)C)c3)SC2)cc1,> 26 µM (inactive)
9,CCc1ccc(-n2cc(-c3ccc(F)cc3)[n+]3c2SCCC3)cc1,> 26 µM (inactive)
10,Cc1cc(Br)cc(/C=N/NC(=O)c2ccc3c(c2)OCO3)c1O,> 26 µM (inactive)
11,COc1ccc(/C=C/C(=O)c2ccncc2)c2ccccc12,> 26 µM (inactive)
12,CCCCC[n+]1ccn(C2=C([O-])c3ccccc3C(=O)/C2=N\S(=O)(=O)c2ccccc2)c1,> 26 µM (inactive)
13,COc1ccc(/C=C/C(=O)c2ccc([N+](=O)[O-])o2)cc1,> 26 µM (inactive)
14,C[C@H](CO)N1C[C@H](C)[C@@H](CN(C)C(=O)NC2CCCCC2)Oc2c(NC(=O)Nc3ccc(C(F)(F)F)cc3)cccc2C1=O,> 26 µM (inactive)
15,CC(C)OCCCNC(=S)N1CCC(C(=O)c2ccc(Cl)cc2)CC1,> 26 µM (inactive)
16,CCc1nnc(NC(=O)c2cccc(C(=O)Nc3nnc(CC)s3)n2)s1,> 26 µM (inactive)
17,COc1cccc(-c2nc(-c3ccc(NC(=O)c4cccnc4)cc3)no2)c1,> 26 µM (inactive)
18,O=C(N/N=C\c1ccc([N+](=O)[O-])s1)c1cncc(Br)c1,> 26 µM (inactive)
19,COc1cc(NC(C)CCCN)c2ncccc2c1 (centres undefined),> 26 µM (inactive)
20,Fc1ccc(C[n+]2c(-c3ccccc3)cc(-c3ccccc3)cc2-c2ccccc2)cc1,> 26 µM (inactive)
21,CCCCNc1c(-c2ccc(-c3cccc(Cl)c3)cc2)nc2ccccn12,> 26 µM (inactive)
22,COc1cc(OC)c2cc(C(=O)N/N=C/c3cccc(OC)c3O)[nH]c2c1,> 26 µM (inactive)
23,C[n+]1c2n(c3ccccc31)N=C(c1cc(C(C)(C)C)c(O)c(C(C)(C)C)c1)CS2,> 26 µM (inactive)
24,Oc1c(Cl)cc(Cl)cc1/C=N/Nc1ncc(Br)cn1,> 26 µM (inactive)
25,CCCCC1(Cc2ccc([N+](=O)[O-])cc2)C(=O)N(c2ccccc2)N(c2ccccc2)C1=O,> 26 µM (inactive)

row,Structure (SMILES),AC50
1,Nc1cc2c3c(cccc3c1)C(=O)N(CCN1CCCC1)C2=O,15.4 µM
2,CCOC(=O)C1(Cc2cccc(Cl)c2)CCCN(C(=O)c2ccc(COC)s2)C1 (centres undefined),> 26 µM (inactive)
3,Fc1cccc(Cl)c1-c1nnc2ccc3ccccc3n12,> 26 µM (inactive)
4,CCCCOc1ncnc2c1[nH]c1ccc(F)cc12,> 26 µM (inactive)
5,Oc1cccc2ccc(Nc3ccccn3)nc12,> 26 µM (inactive)
6,Oc1ccc2ccccc2c1/C=N/Nc1nnc(-c2ncc[nH]2)c2ccccc12,> 26 µM (inactive)
7,O=S(=O)(/C(=C/c1ccc(C(F)(F)F)cc1)c1nc2ccccc2[nH]1)c1ccccc1,> 26 µM (inactive)
8,C(/CCc1ccccc1)=N\Nc1nc2ccccc2[nH]1,> 26 µM (inactive)
9,CCOc1ccc(C(=O)c2cc([N+](=O)[O-])ccc2N2CCOCC2)cc1,0.83 µM
10,O=C1/C(=C/c2cccnc2)CCC/C1=C\c1cccnc1,> 26 µM (inactive)
11,CN(C)CC(C(=O)c1ccccc1)c1ccccc1 (centres undefined),> 26 µM (inactive)
12,CCOC(=O)C1CCN(Cc2ccc(O)c3ncccc23)CC1,> 26 µM (inactive)
13,Cc1cc(N2CCC(C)CC2)nc(NCc2ccccc2)n1,19.6 µM
14,Cc1csc2ncnc(N3CCN(S(=O)(=O)c4cccc(C(F)(F)F)c4)CC3)c12,> 26 µM (inactive)
15,C/C(=N\Nc1nc(C)cc(-c2ccccc2)n1)c1cccc(N)c1,> 26 µM (inactive)
16,COc1ccc(/C=C/C(=O)NC(=S)Nc2ccccc2C(=O)NC2CCCCC2)cc1,> 26 µM (inactive)
17,Cc1sc2ncnc(N/N=C/c3ccccc3O)c2c1C,> 26 µM (inactive)
18,CC1CCC(C(C)C)C(OC(=O)Cn2c(-c3ccc(F)cc3)[n+](C)c3ccccc32)C1 (centres undefined),> 26 µM (inactive)
19,CCOc1ccc(S(=O)(=O)N2CCCCC2)cc1NC(=O)CN1CCCC1c1cccs1 (centres undefined),> 26 µM (inactive)
20,C(=C\c1nc(N2CCCCCC2)c2ccccc2n1)/c1ccccc1,> 26 µM (inactive)
21,Cc1ccc2c(c1)nnn2C1CCN(S(=O)(=O)c2ccc(C(=O)N3C(C)CCCC3C)cc2)CC1 (centres undefined),> 26 µM (inactive)
22,O=c1cnnc(N/N=C/c2ccccn2)[nH]1,> 26 µM (inactive)
23,O=NN(CCc1ccncc1)c1ccc(OCc2ccccc2)cc1,> 26 µM (inactive)
24,Cc1cc(/C=N/n2c(COc3ccccc3C)nc3ccccc3c2=O)c(O)c([N+](=O)[O-])c1,> 26 µM (inactive)
